Data taken from article PMC3859622, “Functional Characterization of ECP-Heparin Interaction: A Novel Molecular Model” (PLoS ONE, 2013).
Numbering of substitutions follows the chain as printed. Several values for one entry are separate records, joined by “and”; a condition that tells them apart may be missing. Identical values can stand only once. Like-named read-outs stand apart in the source and are kept apart here.

What was measured:
ECP Q40A/H64A = molecular target: T1, ECP Q40A/H64A (Homo sapiens, UniProt P12724, H91A/Q67A); test: ITC of heparins with ECP Q40A/H64A; assay type: binding; settings: ITC 25 °C, PBS pH 7.4
T1 sequence (P12724 28-160 Q67A/H91A): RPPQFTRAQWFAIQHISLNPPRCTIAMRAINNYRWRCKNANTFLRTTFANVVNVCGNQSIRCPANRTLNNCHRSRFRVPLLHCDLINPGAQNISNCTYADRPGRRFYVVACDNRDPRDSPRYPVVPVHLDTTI
Experimental: (§1) Thermodynamic analysis of wtECP and mutant ECPs to bind heparin was performed using a MicroCal iTC200 calorimeter (MicroCal, Northampton, USA) [38]. ECP was dialyzed against PBS before use and the same buffer was used to prepare heparin solutions. All experiments were performed at 25 °C, using ECP (20 μM, as protein) and heparin (200 μM). The protein solution was placed in a calorimeter cell and the heparin solution was loaded into the syringe injector. In individual titration, auto-controlled microsyringe injected 2 μL heparin solution into the protein solution with an interval of 120 sec. The integrated heat change was analyzed by means of non-linear regression using the MicroCal Origin software, and enthalpy change (ΔH), dissociation constant (K D), and stoichiometry value (N = X/M) were obtained from a single sigmoidal titration curve [39]. […] The effect of dilution of the heparin solution in the titration cell was removed by subtracting calorimetric data for a blank titration, which consisted of titration of heparin solution into PBS.

ECP H64A = molecular target: T2, ECP H64A (Homo sapiens, UniProt P12724, H91A); test: ITC of heparins with ECP H64A; assay type: binding; settings: ITC 25 °C, PBS pH 7.4
T2 sequence (P12724 28-160 H91A): T1 sequence (P12724 28-160 Q67A/H91A) with A40Q
Experimental: as §1

EDN W7A = tested on: EDN W7A; parameters: method as in earlier work; settings: calculated, Hep6 docked to EDN W7A; cited from earlier work
EDN R132A = tested on: EDN R132A; parameters: method as in earlier work; settings: calculated, Hep6 docked to EDN R132A; cited from earlier work
ECP Q40A = molecular target: T3, ECP Q40A (Homo sapiens, UniProt P12724, Q67A); test: ITC of heparins with ECP Q40A; assay type: binding; settings: ITC 25 °C, PBS pH 7.4
T3 sequence (P12724 28-160 Q67A): T1 sequence (P12724 28-160 Q67A/H91A) with A64H
Experimental: as §1

EDN H15A = tested on: EDN H15A; parameters: method as in earlier work; settings: calculated, Hep6 docked to EDN H15A; cited from earlier work
EDN H129A = tested on: EDN H129A; parameters: method as in earlier work; settings: calculated, Hep6 docked to EDN H129A; cited from earlier work
EDN Q14A = tested on: EDN Q14A; parameters: method as in earlier work; settings: calculated, Hep6 docked to EDN Q14A; cited from earlier work
EDN L130A = tested on: EDN L130A; parameters: method as in earlier work; settings: calculated, Hep6 docked to EDN L130A; cited from earlier work
EDN R36A = tested on: EDN R36A; parameters: method as in earlier work; settings: calculated, Hep6 docked to EDN R36A; cited from earlier work
wtECP = molecular target: T4, wtECP (Homo sapiens, UniProt P12724); test: ITC of heparins with wtECP; assay type: binding; settings: ITC 25 °C, PBS pH 7.4
T4 construct: His6 (C); made in house; host or cells: Escherichia coli BL21 (DE3) CodonPlus
T4 sequence (P12724 28-160): T1 sequence (P12724 28-160 Q67A/H91A) with A40Q, A64H
Experimental: as §1

EDN K38A = tested on: EDN K38A; parameters: method as in earlier work; settings: calculated, Hep6 docked to EDN K38A; cited from earlier work
EDN Q40A = tested on: EDN Q40A; parameters: method as in earlier work; settings: calculated, Hep6 docked to EDN Q40A; cited from earlier work
EDN W10A = tested on: EDN W10A; parameters: method as in earlier work; settings: calculated, Hep6 docked to EDN W10A; cited from earlier work
ECP R105A = molecular target: T5, ECP R105A (Homo sapiens, UniProt P12724, R132A); test: ITC of heparins with ECP R105A; assay type: binding; settings: ITC 25 °C, PBS pH 7.4
T5 sequence (P12724 28-160 R132A): T1 sequence (P12724 28-160 Q67A/H91A) with A40Q, A64H, R105A
Experimental: as §1

EDN = settings: calculated, cited from earlier work
EDN Q34A = tested on: EDN Q34A; parameters: method as in earlier work; settings: calculated, Hep6 docked to EDN Q34A; cited from earlier work
EDN N39A = tested on: EDN N39A; parameters: method as in earlier work; settings: calculated, Hep6 docked to EDN N39A; cited from earlier work

In the case of `O=C(O)[C@@H]1O[C@@H](O[C@H]2[C@H](O)[C@@H](NS(=O)(=O)O)[C@@H](O[C@H]3[C@H](O)[C@@H](OS(=O)(=O)O)C(O)O[C@H]3C(=O)O)O[C@@H]2COS(=O)(=O)O)[C@H](OS(=O)(=O)O)[C@@H](O)[C@@H]1O[C@H]1O[C@H](COS(=O)(=O)O)[C@@H](O[C@@H]2O[C@@H](C(=O)O)[C@@H](O[C@H]3O[C@H](COS(=O)(=O)O)[C@@H](O)[C@H](O)[C@H]3NS(=O)(=O)O)[C@H](O)[C@H]2OS(=O)(=O)O)[C@H](O)[C@H]1NS(=O)(=O)O` (stereo partly drawn) [Hep6, [GlcNS(6S)-IdoA(2S)]3], the “N (sites)” value (ECP Q40A/H64A) is reported as 2.45 ± 0.1 sites, the TΔS (ECP Q40A/H64A) is reported as 3.7 ± 0.1 kcal/mol and the ΔG (ECP Q40A/H64A) is reported as -7.5 kcal/mol and -7.5 ± 0.1 kcal/mol. For the same compound, the ΔH (ECP Q40A/H64A) was -3.9 ± 0.2 kcal/mol, the “N (sites)” value (ECP H64A) was 2.74 ± 0.3 sites and the TΔS (ECP H64A) was 2 ± 0.3 kcal/mol. For the same compound, the ΔG (ECP H64A) was -7.7 kcal/mol and -7.7 ± 0.4 kcal/mol, the ΔH (ECP H64A) was -5.8 ± 0.4 kcal/mol and the Binding energy (EDN W7A) was -8.93 kcal/mol. For the same compound, the Binding energy (EDN R132A) was -8.81 kcal/mol, the “N (sites)” value (ECP Q40A) was 1.7 ± 0.1 sites and the TΔS (ECP Q40A) was 3.2 ± 0.2 kcal/mol. The ΔG (ECP Q40A) was -7.6 kcal/mol and -7.6 ± 0.2 kcal/mol, the ΔH (ECP Q40A) was -4.4 ± 0.3 kcal/mol and the Binding energy (EDN H15A) was -8.93 kcal/mol. The Binding energy (EDN H129A) was -9.05 kcal/mol, the Binding energy (EDN Q14A) was -8.81 kcal/mol and the Binding energy (EDN L130A) was -9.19 kcal/mol. The Binding energy (EDN R36A) was -8.71 kcal/mol, the “N (sites)” value (wtECP) was 1.77 ± 0.1 sites and the TΔS (wtECP) was 4.8 ± 0.1 kcal/mol. For the same compound, the ΔG (wtECP) was -7.8 kcal/mol and -7.8 ± 0.1 kcal/mol, the Binding energy (EDN K38A) was -8.66 kcal/mol and the Binding energy (EDN Q40A) was -8.50 kcal/mol. The Binding energy (EDN W10A) was -8.88 kcal/mol, the “N (sites)” value (ECP R105A) was 2.81 ± 0.1 sites and the TΔS (ECP R105A) was 3.3 ± 0.1 kcal/mol. The ΔG (ECP R105A) was -7.9 kcal/mol and -7.9 ± 0.2 kcal/mol, the ΔH (ECP R105A) was -4.4 ± 0.2 kcal/mol and the Binding energy (EDN; Hep6 docked to wild type EDN, previous docking simulation data) was -9.27 kcal/mol. The Contribution (EDN; contribution of EDN H15 to Hep6 binding energy) was -0.34 kcal/mol, the Contribution (EDN; contribution of EDN K38 to Hep6 binding energy) was -0.61 kcal/mol and the Contribution (EDN; contribution of EDN L130 to Hep6 binding energy) was -0.08 kcal/mol. The Contribution (EDN; contribution of EDN N39 to Hep6 binding energy) was -0.29 kcal/mol, the Contribution (EDN; contribution of EDN Q14 to Hep6 binding energy) was -0.46 kcal/mol and the Contribution (EDN; contribution of EDN Q34 to Hep6 binding energy) was -0.39 kcal/mol. The Contribution (EDN; contribution of EDN Q40 to Hep6 binding energy) was -0.77 kcal/mol, the Contribution (EDN; contribution of EDN R36 to Hep6 binding energy) was -0.56 kcal/mol and the Contribution (EDN; contribution of EDN R132 to Hep6 binding energy) was -0.46 kcal/mol. The Contribution (EDN; contribution of EDN W7 to Hep6 binding energy) was -0.34 kcal/mol, the Contribution (EDN; contribution of EDN W10 to Hep6 binding energy) was -0.39 kcal/mol and the Contribution (EDN; contribution of EDN residue printed H120 (row H129A) to Hep6 binding energy) was -0.22 kcal/mol. For the same compound, the Binding energy (EDN Q34A) was -8.88 kcal/mol and the Binding energy (EDN N39A) was -8.98 kcal/mol.
